{
  "source": "patent US4352928A",
  "about": "“5,6-Alkylenepyrimidine derivative” (Mitsubishi Yuka Pharmaceutical Co., Ltd., priority 1979, dated 1982)",
  "key": {"[1]": {"settings": "Japanese Patent Provisional Publication No. 35-12079/1960; cited from earlier work"}, "[2]": {"settings": "Biochem. & Biophys. Res. Commu., 34, 495 (1969); cited from earlier work"}, "[3]": {"settings": "Japanese Patent Provisional Publication No. 35-12079/1960; cited from earlier work", "remark": "listed apart in the source"}, "[4]": {"tested_on": "Blood Platelet Aggregation", "assay": "Blood Platelet Aggregation Suppressive Effect (collagen-induced, platelet rich plasma)", "format": "cell-based, rabbit", "settings": "Oryctolagus cuniculus, 2 min, read-out: Suppressive Ratio", "procedure": "A rabbit was starved for 18 hours, and the veinal blood was taken from the carotid artery of the rabbit. […] The mixture was centrifuged at 200 G for 15 minutes to collect the platelet rich plasma (PRP). The residual portion was further centrifuged at 2000 G for 15 minutes to collect the platelet poor plasma (PPP). Subsequently, 250 μl. of the PRP was placed in a cuvette, and the methanol solution containing the test sample of the concentration set forth in Table 4 was added. Incubation was carried out for 2 minutes, and a collagen solution was added to the incubated solution to result in the final concentration of 3 μg./ml. so as to induce aggregation. The condition of the aggregation was measured in the Aggregation Meter (available from Shenco Co., Ltd.) and recorded.\nThe suppressive ratio was calculated based on the following equation. [formula] A: Maximum aggregation ratio observed when a solvent only was added. B: Maximum aggregation ratio observed when the test sample was added."}, "blood sugar level": {"tested_on": "blood sugar level", "assay": "Blood Sugar Level Lowering Effect (2-deoxy-D-glucose induced high blood sugar level)", "format": "in vivo, ICR-JCL mouse, male", "settings": "po, mouse, 1 hour after 2-deoxy-D-glucose 500 mg/kg, read-out: Suppressive Ratio; for inhibition in vivo at 30 mg/kg: 30 mg/kg p.o.", "procedure": "To a ICR-JCL mouse, male, having the weight ranging from 25 to 30 g. was orally administered the test sample and, after 15 minutes, 2-deoxy-D-glucose was administered into the cavity of the mouse in the amount of 500 mg/kg to induce a high blood sugar level. The blood was taken after 1 hour, and the blood sugar concentration was determined in the blood serum obtained upon centrifugation, by means of a commercially available test kit (trade name: Glucomesser, produced by Tokyo Zooki Kagaku Co., Ltd., Japan). The suppressive ratio was calculated based on the following equation. [formula] A: Blood sugar level of the positive control group B: Blood sugar level of the negative control group\nC: Blood sugar level of the test sample administered group"}, "inflammation": {"tested_on": "inflammation", "assay": "Anti-Inflammatory Effect (carrageenan-induced swelling of the hind foot)", "format": "in vivo, Wister male rat", "settings": "po, rat, 3 hours after carrageenan, read-out: Suppressive Ratio; for inhibition in vivo at 50 mg/kg: 50 mg/kg p.o.", "procedure": "A Wister male rat having the weight ranging from 120 to 150 g. was starved for 18 hours, and to this was then orally administered the test sample. After lapse of one hour, 0.05 ml. of 1% solution of carrageenan was administered through subcutaneous injection in the plantar surface of the right hind foot to produce inflammation. The volume of the right hind foot was measured prior to the injection of carrageenan and again at 3 hours after the administration through injection. The ratio of the increase of the foot volume was calculated to express in percent based on the measured values. The so calculated ratio was compared with the calculated ratio on the control data to give the dropsical swelling suppressive ratio."}, "blood pressure": {"tested_on": "blood pressure", "assay": "Anti-Hypertensive Effect (spontaneously hipertensive rat)", "format": "in vivo, male", "settings": "SHR", "procedure": "To a spontaneously hipertensive rat (SHR), male, aged 20-30 weeks, blood pressure under contraction 150 mmHg. was orally administered the test sample. The mean blood pressure of the rat was measured under non-anesthetic conditions at 1, 3, 6 and 24 hours after the administration via cannula inserted into the main artery in the abdomen."}, "ICR-JCL mouse": {"tested_on": "ICR-JCL mouse", "assay": "Acute Toxicity on Mouse", "parameters": "species or system male", "settings": "in vivo, po", "procedure": "A ICR-JCL mouse, male, was starved for 18 hours, and to the mouse was orally administered the test sample suspended in 1% tragacantha solution. The condition was observed during one week after the administration and the LD50 was calculated."}, "[5]": {"settings": "100 μM, rabbit PRP, collagen 3 μg/ml"}},
  "note": "Read-outs that look alike come from different tables or passages of the source.",
  "data": [
    {"molecule": "Nc1nc(N)c2c(n1)CCCC2", "note": "[2,4-diamino-5,6-tetramethylenepyrimidine]", "values": [
      {"measurement": "carcinostatic effect", "setting": "[1]", "result": "has a carcinostatic effect"},
      {"measurement": "antagonism against pteridine", "setting": "[2]", "result": "has antagonism against pteridine"},
      {"measurement": "antibacterial activity", "setting": "[3]", "result": "antibacterial activity"}
    ]},
    {"molecule": "CC(=O)Oc1ccccc1C(=O)O", "note": "[Aspirin, reference compound]", "values": [
      {"measurement": "inhibition at 100 µM", "setting": "[4]", "result": 100, "unit": "%"}
    ]},
    {"molecule": "Nc1nc(N2CCNCC2)nc2c1CCCC2", "note": "[Compound No. 1, 2-Piperazino-4-amino-5,6-tetramethylenepyrimidine]", "values": [
      {"measurement": "inhibition at 100 µM", "setting": "[4]; [5]", "result": 100, "unit": "%"},
      {"measurement": "inhibition in vivo at 30 mg/kg", "setting": "blood sugar level", "result": 67.8, "unit": "%"}
    ]},
    {"molecule": "Nc1nc(N2CCN(Cc3ccccc3)CC2)nc2c1CCCC2", "note": "[Compound No. 3, 2-(4-Benzylpiperazino)-4-amino-5,6-tetramethylenepyrimidine]", "values": [
      {"measurement": "inhibition in vivo at 50 mg/kg", "setting": "inflammation", "result": 46, "unit": "%"}
    ]},
    {"molecule": "C=CCN1CCN(c2nc(N)c3c(n2)CCCC3)CC1", "note": "[Compound No. 4, 2-(4-Allylpiperazino)-4-amino-5,6-tetramethylenepyrimidine]", "values": [
      {"measurement": "inhibition in vivo at 50 mg/kg", "setting": "inflammation", "result": 51.2, "unit": "%"}
    ]},
    {"molecule": "Nc1nc(N2CCN(C(=O)C=Cc3ccccc3)CC2)nc2c1CCCC2", "note": "[Compound No. 10, 2-(4-Cinnamoylpiperazino)-4-amino-5,6-tetramethylenepyrimidine]", "values": [
      {"measurement": "inhibition in vivo at 50 mg/kg", "setting": "inflammation", "result": 79.9, "unit": "%"},
      {"measurement": "Change of Blood Pressure at 3 Hours after Administration", "setting": "blood pressure; 25 mg/kg p.o.", "result": -22, "unit": "mmHg."}
    ]},
    {"molecule": "Nc1nc(N2CCN(C(=O)C=Cc3ccco3)CC2)nc2c1CCCC2", "note": "[Compound No. 14, 2-[4-{3-(Furan-2-yl)acryloyl}piperazino]-4-amino-5,6-tetramethylenepyrimidine]", "values": [
      {"measurement": "inhibition in vivo at 25 mg/kg", "setting": "inflammation; 25 mg/kg p.o.", "result": 53.9, "unit": "%"},
      {"measurement": "inhibition in vivo at 30 mg/kg", "setting": "blood sugar level", "result": 60.2, "unit": "%"}
    ]},
    {"molecule": "Nc1nc(N2CCN(C(=O)Nc3ccccc3)CC2)nc2c1CCCC2", "note": "[Compound No. 18, 2-(4-Phenylcarbamoylpiperazino)-4-amino-5,6-tetramethylenepyrimidine]", "values": [
      {"measurement": "inhibition in vivo at 50 mg/kg", "setting": "inflammation", "result": 33.8, "unit": "%"},
      {"measurement": "Change of Blood Pressure at 3 Hours after Administration", "setting": "blood pressure; 50 mg/kg p.o.", "result": -17, "unit": "mmHg."}
    ]},
    {"molecule": "Nc1nc(N2CCN(c3ccccn3)CC2)nc2c1CCCC2", "note": "[Compound No. 32, 2-[4-(2-Pyridyl)piperazino]-4-amino-5,6-tetramethylenepyrimidine]", "values": [
      {"measurement": "Change of Blood Pressure at 3 Hours after Administration", "setting": "blood pressure; 50 mg/kg p.o.", "result": -18, "unit": "mmHg."},
      {"measurement": "inhibition in vivo at 30 mg/kg", "setting": "blood sugar level", "result": 60.1, "unit": "%"}
    ]},
    {"molecule": "CNc1nc(N2CCNCC2)nc2c1CCCC2", "note": "[Compound No. 35, 2-Piperazino-4-methylamino-5,6-tetramethylenepyrimidine]", "values": [
      {"measurement": "inhibition at 100 µM", "setting": "[4]; [5]", "result": 87.7, "unit": "%"},
      {"measurement": "inhibition in vivo at 30 mg/kg", "setting": "blood sugar level", "result": 77.4, "unit": "%"}
    ]},
    {"molecule": "Nc1nc(N2CCNCC2)nc2c1CCC2", "note": "[Compound No. 54, 2-Piperazino-4-amino-5,6-trimethylenepyrimidine]", "values": [
      {"measurement": "inhibition in vivo at 30 mg/kg", "setting": "blood sugar level", "result": 107, "unit": "%"}
    ]},
    {"molecule": "Nc1nc(N2CCN(Cc3ccccc3)CC2)nc2c1CCC2", "note": "[Compound No. 56, 2-(4-Benzylpiperazino)-4-amino-5,6-trimethylenepyrimidine]", "values": [
      {"measurement": "inhibition in vivo at 30 mg/kg", "setting": "blood sugar level", "result": 44.5, "unit": "%"}
    ]},
    {"molecule": "Nc1nc(N2CCNCC2)nc2c1CCCCC2", "note": "[Compound No. 63, 2-Piperazino-4-amino-5,6-pentamethylenepyrimidine]", "values": [
      {"measurement": "inhibition in vivo at 30 mg/kg", "setting": "blood sugar level", "result": 78.9, "unit": "%"}
    ]},
    {"molecule": "Nc1nc(N2CCN(C(=O)C=Cc3ccccc3[N+](=O)[O-])CC2)nc2c1CCCC2", "note": "[compound 11, 2-[4-(2-Nitrocinnamoyl)piperazino]-4-amino-5,6-tetramethylenepyrimidine]", "values": [
      {"measurement": "Change of Blood Pressure at 3 Hours after Administration", "setting": "blood pressure; 50 mg/kg p.o.", "result": -17, "unit": "mmHg."}
    ]},
    {"molecule": "Nc1nc(N2CCN(C(=S)Nc3ccccc3)CC2)nc2c1CCCC2", "note": "[compound 23, 2-(Phenylthiocarbamoylpiperazino)-4-amino-5,6-tetramethylenepyrimidine]", "values": [
      {"measurement": "inhibition in vivo at 50 mg/kg", "setting": "inflammation", "result": 23.9, "unit": "%"}
    ]},
    {"molecule": "Nc1nc(N2CCN(c3ccccc3)CC2)nc2c1CCCC2", "note": "[compound 28, 2-(4-Phenylpiperazino)-4-amino-5,6-tetramethylenepyrimidine]", "values": [
      {"measurement": "inhibition in vivo at 50 mg/kg", "setting": "inflammation", "result": 52.7, "unit": "%"}
    ]},
    {"molecule": "Nc1nc(N2CCN(c3ccc(Cl)cc3)CC2)nc2c1CCCC2", "note": "[compound 29, 2-[4-(4-Chlorophenyl)piperazino]-4-amino-5,6-tetramethylenepyrimidine]", "values": [
      {"measurement": "inhibition in vivo at 50 mg/kg", "setting": "inflammation", "result": 46.8, "unit": "%"},
      {"measurement": "inhibition in vivo at 10 mg/kg", "setting": "blood sugar level; 10 mg/kg p.o.", "result": 49.1, "unit": "%"}
    ]},
    {"molecule": "CN(C)c1nc(N2CCNCC2)nc2c1CCCC2", "note": "[compound 41, 2-Piperazino-4-dimethylamino-5,6-tetramethylenepyrimidine]", "values": [
      {"measurement": "inhibition in vivo at 30 mg/kg", "setting": "blood sugar level", "result": 50.8, "unit": "%"}
    ]},
    {"molecule": "C1CCc2c(nc(N3CCNCC3)nc2N2CCCC2)C1", "note": "[compound 45, 2-Piperazino-4-pyrrolidino-5,6-tetramethylenepyrimidine]", "values": [
      {"measurement": "inhibition at 30 µM", "setting": "[4]; rabbit PRP, collagen 3 μg/ml", "result": 72, "unit": "%"}
    ]},
    {"molecule": "CN1CCN(c2nc3c(c(N4CCCC4)n2)CCCC3)CC1", "note": "[compound 46, 2-(4-Methylpiperazino)-4-pyrrolidino-5,6-tetramethylenepyrimidine]", "values": [
      {"measurement": "inhibition at 30 µM", "setting": "[4]; rabbit PRP, collagen 3 μg/ml", "result": 100, "unit": "%"}
    ]},
    {"molecule": "O=CN1CCN(c2nc3c(c(N4CCOCC4)n2)CCCC3)CC1", "note": "[compound 47, 2-(4-Formylpiperazino)-4-morpholino-5,6-tetramethylenepyrimidine]", "values": [
      {"measurement": "inhibition at 30 µM", "setting": "[4]; rabbit PRP, collagen 3 μg/ml", "result": 100, "unit": "%"}
    ]},
    {"molecule": "C1CCc2c(nc(N3CCNCC3)nc2N2CCOCC2)C1", "note": "[compound 48, 2-Piperazino-4-morpholino-5,6-tetramethylenepyrimidine]", "values": [
      {"measurement": "inhibition at 30 µM", "setting": "[4]; rabbit PRP, collagen 3 μg/ml", "result": 46, "unit": "%"},
      {"measurement": "inhibition in vivo at 30 mg/kg", "setting": "blood sugar level", "result": 95.9, "unit": "%"}
    ]},
    {"molecule": "CN1CCN(c2nc3c(c(N4CCOCC4)n2)CCCC3)CC1", "note": "[compound 49, 2-(4-Methylpiperazino)-4-morpholino-5,6-tetramethylenepyrimidine]", "values": [
      {"measurement": "inhibition at 30 µM", "setting": "[4]; rabbit PRP, collagen 3 μg/ml", "result": 95.2, "unit": "%"},
      {"measurement": "LD50", "setting": "ICR-JCL mouse", "result": "> 500", "unit": "mg/kg"}
    ]},
    {"molecule": "OCCNc1nc(N2CCNCC2)nc2c1CCCC2", "note": "[compound 51, 2-Piperazino-4-(2-hydroxyethyl)amino-5,6-tetramethylenepyrimidine]", "values": [
      {"measurement": "inhibition at 100 µM", "setting": "[4]; [5]", "result": 89.1, "unit": "%"}
    ]}
  ]
}
